Where a SMILES comes first, the peptide text is derived from it. Bridges are numbered along the chain shown (N, C = ends). [ ]: non-standard residue; d: D form. The star is where a group is joined. NH(β-GlcNAc) = CC(=O)N[C@@H]1[C@@H](O)[C@H](O)[C@@H](CO)O[C@H]1N*; Dap = NC[C@H](N)C(=O)O
Legend:
cell proliferation = settings: Singh et al. 2000; Bigioni et al. 2005; cited from earlier work
[1] = system: human melanoma; reference MEL-HO; assay: Melanoma MEL-HO tumours in nude mice, Cisplatin alone or with Aprepitant; type: in vivo; settings: Cisplatin 8 mg/kg on days 1 and 7, alone
Protocol: (§1) Immunocompromised female mice, 5-6 weeks of age were used, nu/nu Balb/c nude mice, provided by Harlan Iberica Barcelona (Spain). They were kept at 24° C. and in sterile conditions with food and water “ad libitum”. […] The tumour size was measured and the mice were evaluated for their state of health and weight daily. […] One of the groups was treated with 200 μl of placebo (control group) and the eight remaining groups with doses of 10 (group 1), 20 (group 2), 30 (group 3), 40 (group 4), 50 (group 5), 60 (group 6), 70 (group 7) and 80 (group 8) mg per kilogram of weight and day of the NK1 receptor antagonist Aprepitant. 3 animals were treated per group, during 28 days. All the mice were sacrificed at the end of the experiment. […] Immunocompromised female mice, 5-6 weeks of age were used, in the same conditions as explained in example 1. […] The tumour size was measured and the mice were evaluated for their state of health and weight daily. […] One of the groups was treated with two single doses of Cisplatin, of 8 mg per kilogram of weight, on days 1 and 7 of the experiment (control group). The eight remaining groups were treated with the same treatment as the control group and the doses of 1 (group 1), 3 (group 2), 5 (group 3), 6 (group 4), 7 (group 5), 8 (group 6), 9 (group 7) and 10 (group 8) mg per kilogram of weight and day, of the NK1 receptor antagonist Aprepitant. […]

[2] = system: human lymphoma; reference BC-1; assay: Lymphoma BC-1 tumours in nude mice, Cisplatin alone or with Aprepitant; type: in vivo; settings: Cisplatin 8 mg/kg on days 1 and 7, alone
Protocol: as §1

[3] = system: human lung cancer; reference HCC-44; assay: Lung cancer HCC-44 tumours in nude mice, Cisplatin alone or with Aprepitant; type: in vivo; settings: Cisplatin 8 mg/kg on days 1 and 7, alone
Protocol: Immunocompromised female mice, 5-6 weeks of age were used, nu/nu Balb/c nude mice, provided by Harlan Iberica Barcelona (Spain). They were kept at 24° C. and in sterile conditions with food and water “ad libitum”. […] The tumour size was measured and the mice were evaluated for their state of health and weight daily. […] One of the groups was treated with 200 μl of placebo (control group) and the eight remaining groups with doses of 10 (group 1), 20 (group 2), 30 (group 3), 40 (group 4), 50 (group 5), 60 (group 6), 70 (group 7) and 80 (group 8) mg per kilogram of weight and day of the NK1 receptor antagonist Aprepitant. 3 animals were treated per group, during 28 days. All the mice were sacrificed at the end of the experiment. […] Immunocompromised female mice, 5-6 weeks of age were used, in the same conditions as explained in example 1. […] The tumour size was measured and the mice were evaluated for their state of health and weight daily. […] One of the groups was treated with Cisplatin at 8 mg per kilogram of weight at single doses on days 1 and 7 of the experiment (control group) and the eight remaining groups with the same treatment as the control group and the doses of 1 (group 1), 3 (group 2), 5 (group 3), 6 (group 4), 7 (group 5), 8 (group 6), 9 (group 7) and 10 (group 8) mg per kilogram of weight and day, of the NK1 receptor antagonist Aprepitant. […]

[4] = system: human glioma; reference GAMG; assay: Glioma GAMG tumours in nude mice, Cisplatin alone or with Aprepitant; type: in vivo; settings: Cisplatin 8 mg/kg on days 1 and 7, alone
Protocol: as §1

[5] = system: human neuroblastoma; reference KELLY; assay: Neuroblastoma KELLY tumours in nude mice, Cisplatin alone or with Aprepitant; type: in vivo; settings: Cisplatin 8 mg/kg on days 1 and 7, alone
Protocol: as §1

[6] = system: human fibrosarcoma; reference HT-1080; assay: Fibrosarcoma HT-1080 tumours in nude mice, Cisplatin alone or with Aprepitant; type: in vivo; settings: Cisplatin 8 mg/kg on days 1 and 7, alone
Protocol: as §1

Structure (SMILES): Cc1ccc(CC(=O)N(C)[C@H](Cc2ccc3ccccc3c2)C(=O)N[C@@H]2CCCC[C@@H]2NC(=O)c2c[nH]c3ccccc23)cc1 [MEN 11467]
- Blocking cell proliferation (cell proliferation): efficacy thereof in blocking cell proliferation

Structure (SMILES): CC(=O)NC1(c2ccccc2)CCN(CC[C@H](CN(C)C(=O)c2ccccc2)c2ccc(Cl)c(Cl)c2)CC1 [SR 48968]
- Blocking cell proliferation (cell proliferation): efficacy thereof in blocking cell proliferation

Structure (SMILES): N.N.[Cl][Pt][Cl] [Cisplatin]
- Tumour size (mean volume of the tumour) ([1]; 7 days): 105 ± 6 cubic millimeters
- Tumour size (mean volume of the tumour) ([1]; 14 days): 75 ± 6 cubic millimeters
- Tumour size (mean volume of the tumour) ([2]; 7 days): 85 ± 6 cubic millimeters
- Tumour size (mean volume of the tumour) ([2]; 14 days): 50 ± 3 cubic millimeters
- Tumour size (mean volume of the tumour) ([3]; 7 days): 105 ± 4 cubic millimeters
- Tumour size (mean volume of the tumour) ([3]; 14 days): 70 ± 7 cubic millimeters
- Tumour size (mean volume of the tumour) ([4]; 7 days): 115 ± 7 cubic millimeters
- Tumour size (mean volume of the tumour) ([4]; 14 days): 85 ± 6 cubic millimeters
- Tumour size (mean volume of the tumour) ([5]; 7 days): 95 ± 8 cubic millimeters
- Tumour size (mean volume of the tumour) ([5]; 14 days): 60 ± 8 cubic millimeters
- Tumour size (mean volume of the tumour) ([6]; 7 days): 95 ± 5 cubic millimeters
- Tumour size (mean volume of the tumour) ([6]; 14 days): 65 ± 5 cubic millimeters

Structure (SMILES): CC(=O)N[C@@H]1[C@@H](O)[C@H](O)[C@@H](CO)O[C@H]1NC(=O)C[C@@H]1NC(=O)[C@H](CC(C)C)NC(=O)[C@@H]2CNC(=O)C[C@H](NC1=O)C(=O)N[C@@H](Cc1c[nH]c3ccccc13)C(=O)N[C@@H](Cc1ccccc1)C(=O)N2 [MEN 11420, Nepadutant] (cyclo(D(NH(β-GlcNAc))DWF[Dap]L); lactam 2-5)
- Blocking cell proliferation (cell proliferation): efficacy thereof in blocking cell proliferation

From patent publication US10463670B2, “Use of non-peptide NK1 antagonists in a predetermined dose for the treatment of cancer” (SERVICIO ANDALUZ DE SALUD, priority 2013, dated 2019)
